This is an account of results in patent US12398127B2, “Thyroid hormone receptor beta agonist compounds” (Terns Pharmaceuticals, Inc., priority 2019, dated 2025).

One assay has as its target T1, TR beta-LBD (Homo sapiens, UniProt P10828).
T1 construct: TR alpha-LBD (0.4 nM final concentration) or TR beta-LBD (1.0 nM final concentration) was added; purchased ThermoFisher
T1 sequence (P10828 217-461 limits assumed): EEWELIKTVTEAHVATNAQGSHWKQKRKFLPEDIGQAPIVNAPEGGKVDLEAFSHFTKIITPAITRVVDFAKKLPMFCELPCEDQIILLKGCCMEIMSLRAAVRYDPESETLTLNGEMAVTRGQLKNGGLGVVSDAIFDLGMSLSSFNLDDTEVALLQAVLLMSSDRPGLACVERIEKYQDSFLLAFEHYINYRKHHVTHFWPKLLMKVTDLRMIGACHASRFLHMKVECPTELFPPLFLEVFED
In words: LanthaScreen TR-FRET Thyroid Receptor beta Coactivator Assay. The format is biochemical. The conditions noted are these: for THRβ-Selectivity: THR beta over THR alpha, derived from T3-selectivity normalized data; for EC50: TR-FRET coactivator recruitment, 2 hour incubation at room temperature, run in duplicate multiple times, average data reported, read-out: EC50 THRβ-FRET. The protocol: (§1) LanthaScreen™ TR-FRET Thyroid Receptor alpha Coactivator Assay kit (ThermoFisher) and LanthaScreen™ TR-FRET Thyroid Receptor beta Coactivator Assay kit (ThermoFisher) were used for agonist compound screening. Compounds in DMSO were diluted using ECHO Liquid Handler (Labcyte Inc.) into 384 plates in 10-point 3-fold series in duplicate (5 micro M final top concentration). Buffer C (ThermoFisher) was added to each well before the 4×mixture of fluorescein-SCR2-2 coactivator (200 nM final concentration), Terbium-labeled anti-GST antibody (2 nM final concentration), and TR alpha-LBD (0.4 nM final concentration) or TR beta-LBD (1.0 nM final concentration) was added. After 2 hour incubation at room temperature in dark, the TR-FRET signal was measured on an EnVision plate reader (PerkinElmer) with excitation at 340 nm and dual emission readout at 495 and 520 nm with the delay time of 100 micro second and the integration time of 200 micro second. The ratio of emission signal at 520 and at 495 was used to calculate EC50 using GraphPad Prism (GraphPad Software). In every batch of compound screening, T3 (L-3,3′,5-Triiodothyronine sodium salt, >95%) (Calbiochem) was used as reference compound. The EC50 of T3 measured were within 3-fold of the reference value provided by the assay kit manufacturer (ThermoFisher Scientific). The Z′ factors measured in every batch of screening using T3 as high percent effect (HPE) control and 0.5% DMSO as zero percent effect (ZPE) control were in the range of 0.5 to 0.8. Compounds' THR-beta selectivity values are derived from T3-selectivity normalized data.
(In general: TR-FRET usually uses a lanthanide donor and a delayed reading to cut background.)

The target in a further assay is T2, TR alpha-LBD (Homo sapiens, UniProt P10827).
T2 construct: TR alpha-LBD (0.4 nM final concentration) or TR beta-LBD (1.0 nM final concentration) was added; purchased ThermoFisher
T2 sequence (P10827 163-410 isoform P10827-2 limits assumed, other chains not shown): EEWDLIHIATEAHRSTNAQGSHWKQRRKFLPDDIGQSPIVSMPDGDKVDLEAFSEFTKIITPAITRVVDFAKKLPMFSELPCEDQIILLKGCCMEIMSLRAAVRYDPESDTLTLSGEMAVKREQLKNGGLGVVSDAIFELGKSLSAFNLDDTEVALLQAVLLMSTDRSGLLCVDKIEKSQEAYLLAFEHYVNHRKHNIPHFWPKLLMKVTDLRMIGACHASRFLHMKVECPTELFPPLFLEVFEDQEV
In words: LanthaScreen TR-FRET Thyroid Receptor alpha Coactivator Assay. Format: biochemical. The conditions noted are these: TR-FRET coactivator recruitment, 2 hour incubation at room temperature; run in duplicate multiple times, average data reported; read-out: EC50 THRα-FRET. The protocol:
as §1, with “The EC50 of T3 measured were within 3-fold of the reference value provided by the assay kit manufacturer (ThermoFisher Scientific).” left out, “Compounds' THR-beta selectivity values are derived from T3-selectivity normalized data.” left out

As a reminder, the EC50 is the midpoint of the concentration-response curve. `O=C(Nc1cc(Cl)c(Oc2n[nH]c(=O)c3ccccc23)c(Cl)c1)c1noc(=O)[nH]1` [Example 1, N-(3,5-dichloro-4-((4-oxo-3,4-dihydrophthalazin-1-yl)oxy)phenyl)-5-oxo-4,5-dihydro-1,2,4-oxadiazole-3-carboxamide] had a THRβ-Selectivity on TR beta-LBD of 57.5. The figures for the EC50 at TR beta-LBD and on TR alpha-LBD were 33.7 nM and 492 nM, respectively.

For the compound `Cn1nc(Oc2c(Cl)cc(NC(=O)c3noc(=O)[nH]3)cc2Cl)c2ccccc2c1=O` [Example 2, N-(3,5-dichloro-4-((3-methyl-4-oxo-3,4-dihydrophthalazin-1-yl)oxy)phenyl)-5-oxo-4,5-dihydro-1,2,4-oxadiazole-3-carboxamide], on TR beta-LBD, the THRβ-Selectivity amounted to 10.9 and the EC50 was determined as 5.5 nM. The EC50 at TR alpha-LBD is 40.5 nM.
